Measurements reported in patent US11046691B1 (IDEAYA BIOSCIENCES, INC., priority 2018, dated 2021).

What follows are molecules tested against hMAT2A (Homo sapiens (Human), UniProt P31153) (assay: Phosphate Sensor Fluorescence Assay (MAT2A enzyme inhibition)). Conditions: L-methionine 500 uM, ATP 500 uM, class symbols.
Format: biochemical
Procedure, shortened: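 Recombinant MAT2A preincubated 15 min at room temperature with compound, then reacted 1 h at room temperature with 500 uM L-methionine and 500 uM ATP in Tris pH 7.5 buffer containing PNP/7-MEG.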

Sequence of hMAT2A (P31153 whole entry): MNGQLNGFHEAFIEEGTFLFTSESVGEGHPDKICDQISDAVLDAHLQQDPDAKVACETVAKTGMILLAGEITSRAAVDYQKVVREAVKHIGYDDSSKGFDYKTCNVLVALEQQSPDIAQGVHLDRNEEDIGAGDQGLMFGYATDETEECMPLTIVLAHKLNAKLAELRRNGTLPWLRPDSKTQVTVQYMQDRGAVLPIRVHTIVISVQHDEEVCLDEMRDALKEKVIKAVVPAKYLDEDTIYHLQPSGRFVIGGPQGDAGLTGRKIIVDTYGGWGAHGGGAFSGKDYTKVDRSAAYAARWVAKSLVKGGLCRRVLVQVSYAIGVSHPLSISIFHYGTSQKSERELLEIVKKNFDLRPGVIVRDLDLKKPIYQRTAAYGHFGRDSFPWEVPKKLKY

IC50 [nM] | Compound
< 200 | CNc1nc(=O)n(-c2ccccc2Br)c2cc(Cl)ccc12 [Example 225, 1-(2-bromophenyl)-7-chloro-4-(methylamino)quinazolin-2-one]
< 200 | CNc1nc(=O)n(-c2ccccc2OC)c2cc(Cl)ccc12 [Example 226, 7-chloro-1-(2-methoxyphenyl)-4-(methylamino)hydroquinazolin-2-one]
< 200 | CN(C)c1nc(=O)n(-c2cccc(CCCc3ccccc3)c2)c2cc(Cl)ccc12 [Example 227, 4-(dimethylamino)-7-chloro-1-[3-(3-phenylpropyl)phenyl]hydroquinazolin-2-one]
< 200 | COC1CCN(c2nc(=O)n(-c3ccccc3)c3cc(Cl)ccc23)C1 (stereo not shown) [Example 230, 7-chloro-4-(3-methoxypyrrolidin-1-yl)-1-phenylquinazolin-2(1H)-one]
1000 to 10000 | CN(C)C(=O)CNc1nc(=O)n(-c2ccccc2)c2cc(Cl)ccc12 [Example 231, 2-[(7-chloro-2-oxo-1-phenyl-1,2-dihydroquinazolin-4-yl)amino]-N,N-dimethylacetamide]
< 200 | O=c1nc(NCC2COC2)c2ccc(Cl)cc2n1-c1ccccc1 [Example 232, 7-chloro-4-[(oxetan-3-ylmethyl)amino]-1-phenylhydroquinazolin-2-one]
< 200 | Cn1ccc(CNc2nc(=O)n(-c3ccccc3)c3cc(Cl)ccc23)n1 [Example 233, 7-chloro-4-1{[(1-methylpyrazol-3-yl)-methyl]amino}-1-phenylhydro-quinazolin-2-one]
< 200 | CN(Cc1ccncc1)c1nc(=O)n(-c2ccccc2)c2cc(Cl)ccc12 [Example 234, 7-chloro-4-[methyl(pyridin-4-ylmethyl)-amino]-1-phenylhydroquinazolin-2-one]
< 200 | CN(Cc1cccnc1)c1nc(=O)n(-c2ccccc2)c2cc(Cl)ccc12 [Example 235, 7-chloro-4-[methyl(pyridin-3-ylmethyl)-amino]-1-phenylhydroquinazolin-2-one]
< 200 | CN(CC(F)(F)F)c1nc(=O)n(-c2ccccc2)c2cc(Cl)ccc12 [Example 237, 7-chloro-4-[methyl(2,2,2-trifluoroethyl)-amino]-1-phenylhydroquinazolin-2-one]
< 200 | CC1(C)CCN(c2nc(=O)n(-c3ccccc3)c3cc(Cl)ccc23)C1 [Example 238, 4-(3,3-dimethylpyrrolidin-1-yl)-7-chloro-1-phenylhydroquinazolin-2-one]
< 200 | O=c1nc(N2CC[C@@H](O)C2)c2ccc(Cl)cc2n1-c1ccccc1 [Example 239, 4-((3R)-3-hydroxypyrrolidinyl)-7-chloro-1-phenylhydroquinazolin-2-one]
1000 to 10000 | NC(=O)[C@@H]1CCCN1c1nc(=O)n(-c2ccccc2)c2cc(Cl)ccc12 [Example 240, (2S)-1-(7-chloro-2-oxo-1-phenylhydro-quinazolin-4-yl)pyrrolidine-2-carboxamide]
1000 to 10000 | NC(=O)[C@H]1CCCN1c1nc(=O)n(-c2ccccc2)c2cc(Cl)ccc12 [Example 241, (2R)-1-(7-chloro-2-oxo-1-phenylhydro-quinazolin-4-yl)pyrrolidine-2-carboxamide]
500 to 1000 | Cc1nc(=O)n(-c2ccccc2)c2cc(Cl)ccc12 [Example 242, 7-chloro-4-methyl-1-phenylhydro-quinazolin-2-one]
< 200 | CN(C)c1nc(=O)n(-c2ccccc2Cl)c2nc(C(F)(F)F)ccc12 [Example 244, 1-(2-chlorophenyl)-4-(dimethylamino)-7-(trifluoromethyl)pyrido[2,3-d]-pyrimidin-2(1H)-one]
< 200 | O=c1nc(NC2CC3(CCC3)C2)c2ccc(C(F)(F)F)nc2n1-c1ccccc1Cl [Example 245, 1-(2-chlorophenyl)-4-(spiro[3.3]heptan-2-ylamino)-7-(trifluoromethyl)pyrido-[2,3-d]pyrimidin-2(1H)-one]

IC50 [nM] | Compound
< 200 | O=c1nc(NCC2CC2)c2ccc(C(F)(F)F)nc2n1-c1ccccc1Cl [Example 246]
< 200 | O=c1nc(NCCCO)c2ccc(C(F)(F)F)nc2n1-c1ccccc1Cl [Example 247, 1-(2-chlorophenyl)-4-[(3-hydroxy-propyl)amino]-7-(trifluoromethyl)-pyrido[2,3-d]pyrimidin-2(1H)-one]
< 200 | COCCCNc1nc(=O)n(-c2ccccc2Cl)c2nc(C(F)(F)F)ccc12 [Example 248, 1-(2-chlorophenyl)-4-[(3-methoxy-propyl)amino]-7-(trifluoromethyl)-pyrido[2,3-d]pyrimidin-2(1H)-one]
500 to 1000 | O=c1nc(N2CC[C@@H](O)C2)c2ccc(Cl)cc2n1-c1ccc2nccn2c1 [Example 250, 4-((3R)-3-hydroxypyrrolidin-1-yl)-7-chloro-1-(4-hydroimidazo[1,2-a]pyridin-6-yl)-hydroquinazolin-2-one]
1000 to 10000 | CNc1nc(=O)n(-c2ccc3nccn3c2)c2cc(Cl)ccc12 [Example 251, 7-chloro-1-(4-hydroimidazo[1,2-a]-pyridin-6-yl)-4-(methylamino)hydro-quinazolin-2-one]
< 200 | O=c1[nH]c(=O)n(-c2cccc3[nH]ncc23)c2cc(Cl)ccc12 [Example 254, 1-(1H-indazol-4-yl)-7-chloro-1,3-dihydroquinazoline-2,4-dione]
< 200 | O=c1nc(Nc2ccccn2)c2ccc(C(F)(F)F)nc2n1-c1ccccc1Cl [Example 256, 1-(2-chlorophenyl)-4-(2-pyridylamino)-7-(trifluoromethyl)pyrido[2,3-d]-pyrimidin-2(1H)-one]
< 200 | Cn1ccc(CNc2nc(=O)n(-c3ccccc3Cl)c3nc(C(F)(F)F)ccc23)n1 [Example 257, 1-(2-chlorophenyl)-4-{[(1-methyl-pyrazol-3-yl)methyl]amino}-7-(trifluoro-methyl)-pyrido[2,3-d]pyrimidin-2(1H)-one]
< 200 | CC(C)Nc1nc(=O)n(-c2ccccc2Cl)c2nc(C(F)(F)F)ccc12 [Example 258, 1-(2-chlorophenyl)-4-[(methylethyl)-amino]-7-(trifluoromethyl)pyrido[2,3-d]-pyrimidin-2(1H)-one]
< 200 | CC(C)(C)Nc1nc(=O)n(-c2ccccc2Cl)c2nc(C(F)(F)F)ccc12 [Example 259, 4-[(tert-butyl)amino]-1-(2-chloro-phenyl)-7-(trifluoromethyl)pyrido-[2,3-d]pyrimidin-2(1H)-one]
< 200 | CNc1nc(=O)n(-c2ncccc2C)c2nc(C(F)(F)F)ccc12 [Example 260, 1-(3-methyl(2-pyridyl))-4-(methyl-amino)-7-(trifluoromethyl)pyrido[2,3-d]-pyrimidin-2(1H)-one]
< 200 | CNc1nc(=O)n(-c2ncccc2Cl)c2nc(C(F)(F)F)ccc12 [Example 261, 1-(3-chloro(2-pyridyl))-4-(methyl-amino)-7-(trifluoromethyl)pyrido[2,3-d]-pyrimidin-2(1H)-one]
< 200 | Cc1ncccc1-n1c(=O)nc(N)c2ccc(C(F)(F)F)nc21 [Example 263]
< 200 | CS(=O)(=O)CCNc1nc(=O)n(-c2ccccc2Cl)c2nc(C(F)(F)F)ccc12 [Example 264, 1-(2-chlorophenyl)-4-{[2-(methyl-sulfonyl)ethyl]amino}-7-(trifluoro-methyl)pyrido [2,3-d]pyrimidin-2 (1H)-one]
< 200 | O=c1nc(NCC2(CO)CC2)c2ccc(C(F)(F)F)nc2n1-c1ccccc1Cl [Example 265]
1000 to 10000 | CN(C)CCCNc1nc(=O)n(-c2ccccc2Cl)c2nc(C(F)(F)F)ccc12 [Example 266, 4-{[3-(dimethylamino)propyl]amino}-1-(2-ch1orophenyl)-7-(trifluoromethyl)-pyrido[2,3-d]pyrimidin-2(1H)-one]
1000 to 10000 | CN(C)CCNc1nc(=O)n(-c2ccccc2Cl)c2nc(C(F)(F)F)ccc12 [Example 267, 4-{[2-(dimethylamino)ethyl]amino}-1-(2-chlorophenyl)-7-(trifluoromethyl)-pyrido[2,3-d]pyrimidin-2(1H)-one]

Compound | IC50 [nM]
CNc1nc(=O)n(Cc2c[nH]cn2)c2cc(Cl)ccc12 [Example 262, 7-chloro-1-(imidazol-4-ylmethyl)-4-(methylamino)hydroquinazolin-2-one] | < 200

Same assay, conditions: L-methionine 500 uM, ATP 500 uM, numeric bound

IC50 [nM] | Compound
> 10000 | O=C(O)[C@H]1CCCN1c1nc(=O)n(-c2ccccc2)c2cc(Cl)ccc12 [Example 224, (2R)-1-(7-chloro-2-oxo-1-phenylhydro-quinazolin-4-yl)pyrrolidine-2-carboxylic acid]
> 10000 | CN(C)c1nc(=O)n(-c2ccccc2)c2cc(-c3cscn3)ccc12 [Example 228, 4-(dimethylamino)-1-phenyl-7-(1,3-thiazol-4-yl)hydroquinazolin-2-one]
> 10000 | O=c1[nH]c(=O)n(-c2ccc(O)cc2)c2cc(Cl)ccc12 [Example 229, 7-chloro-1-(4-hydroxyphenyl)-1,3-dihydroquinazoline-2,4-dione]
> 10000 | CN(Cc1ccccn1)c1nc(=O)n(-c2ccccc2)c2cc(Cl)ccc12 [Example 236, 7-chloro-4-[methyl(pyridin-2-ylmethyl)-amino]-1-phenylhydroquinazolin-2-one]
> 10000 | CNc1nc(=O)n(-c2ccccc2)c2cc(Cl)nnc12 [Example 243, 3-chloro-8-(methylamino)-5-phenyl-5-hydropyrimidino[5,4-c]pyridazin-6-one]
> 10000 | O=c1nc(NCC(F)F)c2ccc(Cl)cc2n1-c1ccc2nccn2c1 [Example 249, 4-[(2,2-difluoroethyl)amino]-7-chloro-1-(4-hydroimidazo[1,2-a]pyridin-6-yl)-hydroquinazolin-2-one]
> 10000 | Nc1nc(=O)n(-c2ccc3nccn3c2)c2cc(Cl)ccc12 [Example 252, 4-amino-7-chloro-1-(4-hydroimidazo-[1,2-a]pyridin-6-yl)hydroquinazolin-2-one]
> 10000 | O=c1[nH]c(=O)n(-c2nc3ccccc3s2)c2cc(Cl)ccc12 [Example 253, 1-benzothiazol-2-yl-7-chloro-1,3-dihydroquinazoline-2,4-dione]
